Data published in the NIST ThermoML archive (doi:10.1016/j.fluid.2017.12.037).
± gives the expanded uncertainty stated by the source.

Assay: xn = mol fraction of the nth substance listed
Details: Gas, Buoyancy - hydrostatic balance with magnetic suspension - one sinker

C=C(F)C(F)(F)F [2,3,3,3-tetrafluoro-1-propene] + FCF
Details	mass density [kg/m3]
279.8 K, 225 kPa, x1 = 0.202	6.518 ± 0.009
279.81 K, 366 kPa, x1 = 0.202	10.881 ± 0.013
279.82 K, 422 kPa, x1 = 0.61	18.046 ± 0.02
279.82 K, 531 kPa, x1 = 0.202	16.362 ± 0.018
279.99 K, 139 kPa, x1 = 0.61	5.52 ± 0.009
280 K, 292 kPa, x1 = 0.61	12.065 ± 0.014
289.13 K, 223 kPa, x1 = 0.202	6.201 ± 0.008
289.13 K, 326 kPa, x1 = 0.202	9.243 ± 0.011
289.13 K, 498 kPa, x1 = 0.202	14.57 ± 0.016
289.14 K, 652 kPa, x1 = 0.202	19.613 ± 0.021
289.24 K, 435 kPa, x1 = 0.61	17.849 ± 0.02
289.25 K, 300 kPa, x1 = 0.61	11.915 ± 0.014
289.27 K, 142 kPa, x1 = 0.61	5.456 ± 0.009
289.35 K, 825 kPa, x1 = 0.062	21.899 ± 0.024
289.47 K, 272 kPa, x1 = 0.062	6.547 ± 0.008
289.52 K, 465 kPa, x1 = 0.062	11.568 ± 0.013
298.56 K, 1030 kPa, x1 = 0.062	27.002 ± 0.029
298.65 K, 448 kPa, x1 = 0.61	17.642 ± 0.02
298.65 K, 795 kPa, x1 = 0.062	19.996 ± 0.022
298.67 K, 524 kPa, x1 = 0.062	12.632 ± 0.014
298.68 K, 146 kPa, x1 = 0.61	5.4 ± 0.008
298.68 K, 314 kPa, x1 = 0.062	7.355 ± 0.009
298.7 K, 309 kPa, x1 = 0.61	11.815 ± 0.014
298.95 K, 208 kPa, x1 = 0.366	6.462 ± 0.009
298.96 K, 416 kPa, x1 = 0.366	13.396 ± 0.015
298.97 K, 629 kPa, x1 = 0.366	21.025 ± 0.023
299.11 K, 197 kPa, x1 = 0.202	5.25 ± 0.007
299.11 K, 460 kPa, x1 = 0.202	12.798 ± 0.015
299.11 K, 653 kPa, x1 = 0.202	18.744 ± 0.021
299.11 K, 817 kPa, x1 = 0.202	24.131 ± 0.026
308.21 K, 285 kPa, x1 = 0.062	6.408 ± 0.008
308.21 K, 465 kPa, x1 = 0.062	10.702 ± 0.012
308.21 K, 692 kPa, x1 = 0.062	16.408 ± 0.018
308.21 K, 839 kPa, x1 = 0.062	20.316 ± 0.022
308.21 K, 1102 kPa, x1 = 0.062	27.74 ± 0.03
308.23 K, 1301 kPa, x1 = 0.062	33.802 ± 0.037
308.29 K, 170 kPa, x1 = 0.61	6.134 ± 0.009
308.3 K, 340 kPa, x1 = 0.61	12.602 ± 0.015
308.32 K, 577 kPa, x1 = 0.61	22.346 ± 0.025
308.33 K, 769 kPa, x1 = 0.61	30.942 ± 0.034
308.47 K, 201 kPa, x1 = 0.366	6.029 ± 0.008
308.47 K, 387 kPa, x1 = 0.366	11.937 ± 0.014
308.47 K, 560 kPa, x1 = 0.366	17.726 ± 0.02
308.47 K, 794 kPa, x1 = 0.366	26.137 ± 0.028
308.69 K, 226 kPa, x1 = 0.202	5.868 ± 0.008
308.69 K, 390 kPa, x1 = 0.202	10.341 ± 0.012
308.69 K, 569 kPa, x1 = 0.202	15.462 ± 0.017
308.7 K, 735 kPa, x1 = 0.202	20.457 ± 0.023
308.7 K, 1050 kPa, x1 = 0.202	30.682 ± 0.033
317.75 K, 163 kPa, x1 = 0.062	3.497 ± 0.006
317.75 K, 406 kPa, x1 = 0.062	8.95 ± 0.011
317.75 K, 648 kPa, x1 = 0.062	14.699 ± 0.016
317.75 K, 910 kPa, x1 = 0.062	21.311 ± 0.023
317.75 K, 1331 kPa, x1 = 0.062	32.968 ± 0.036
317.78 K, 1625 kPa, x1 = 0.062	42.032 ± 0.045
317.89 K, 139 kPa, x1 = 0.61	4.816 ± 0.008
317.89 K, 309 kPa, x1 = 0.61	11.009 ± 0.013
317.9 K, 527 kPa, x1 = 0.61	19.436 ± 0.022
317.92 K, 735 kPa, x1 = 0.61	28.033 ± 0.031
317.92 K, 929 kPa, x1 = 0.61	36.73 ± 0.04
318.29 K, 219 kPa, x1 = 0.202	5.48 ± 0.007
318.29 K, 398 kPa, x1 = 0.202	10.192 ± 0.012
318.29 K, 586 kPa, x1 = 0.202	15.349 ± 0.017
318.29 K, 790 kPa, x1 = 0.202	21.254 ± 0.023
318.29 K, 1058 kPa, x1 = 0.202	29.49 ± 0.032
318.3 K, 1336 kPa, x1 = 0.202	38.819 ± 0.042
318.53 K, 165 kPa, x1 = 0.366	4.746 ± 0.007
318.53 K, 351 kPa, x1 = 0.366	10.354 ± 0.012
318.53 K, 563 kPa, x1 = 0.366	17.123 ± 0.019
318.53 K, 766 kPa, x1 = 0.366	23.969 ± 0.026
318.53 K, 1009 kPa, x1 = 0.366	32.745 ± 0.035
327.52 K, 157 kPa, x1 = 0.61	5.289 ± 0.008
327.52 K, 329 kPa, x1 = 0.61	11.37 ± 0.013
327.52 K, 536 kPa, x1 = 0.61	19.029 ± 0.021
327.53 K, 930 kPa, x1 = 0.61	35.068 ± 0.038
327.54 K, 1122 kPa, x1 = 0.61	43.758 ± 0.047
327.55 K, 734 kPa, x1 = 0.61	26.847 ± 0.029
328.33 K, 223 kPa, x1 = 0.062	4.64 ± 0.006
328.34 K, 637 kPa, x1 = 0.062	13.854 ± 0.016
328.34 K, 945 kPa, x1 = 0.062	21.307 ± 0.023
328.34 K, 1335 kPa, x1 = 0.062	31.333 ± 0.034
328.34 K, 1696 kPa, x1 = 0.062	41.656 ± 0.045
328.34 K, 2027 kPa, x1 = 0.062	52.145 ± 0.056
328.43 K, 227 kPa, x1 = 0.202	5.515 ± 0.007
328.43 K, 367 kPa, x1 = 0.202	9.049 ± 0.011
328.43 K, 626 kPa, x1 = 0.202	15.83 ± 0.018
328.43 K, 849 kPa, x1 = 0.202	22.032 ± 0.024
328.43 K, 1140 kPa, x1 = 0.202	30.631 ± 0.033
328.43 K, 1427 kPa, x1 = 0.202	39.78 ± 0.043
328.43 K, 1696 kPa, x1 = 0.202	49.141 ± 0.053
328.58 K, 1144 kPa, x1 = 0.366	36.066 ± 0.039
328.58 K, 1280 kPa, x1 = 0.366	41.182 ± 0.044
328.6 K, 618 kPa, x1 = 0.366	18.221 ± 0.02
328.6 K, 894 kPa, x1 = 0.366	27.268 ± 0.03
328.61 K, 203 kPa, x1 = 0.366	5.679 ± 0.008
328.61 K, 380 kPa, x1 = 0.366	10.866 ± 0.013
337.94 K, 261 kPa, x1 = 0.062	5.321 ± 0.007
337.94 K, 1368 kPa, x1 = 0.062	30.983 ± 0.034
337.95 K, 1030 kPa, x1 = 0.062	22.524 ± 0.025
337.95 K, 1871 kPa, x1 = 0.062	44.844 ± 0.049
337.95 K, 2216 kPa, x1 = 0.062	54.98 ± 0.059
338.06 K, 1097 kPa, x1 = 0.202	27.951 ± 0.03
338.06 K, 1440 kPa, x1 = 0.202	38.107 ± 0.041
338.06 K, 1722 kPa, x1 = 0.202	47.144 ± 0.051
338.06 K, 2012 kPa, x1 = 0.202	57.214 ± 0.061
338.07 K, 229 kPa, x1 = 0.202	5.349 ± 0.007
338.07 K, 435 kPa, x1 = 0.202	10.38 ± 0.012
338.07 K, 663 kPa, x1 = 0.202	16.152 ± 0.018
338.07 K, 900 kPa, x1 = 0.202	22.468 ± 0.025
338.13 K, 157 kPa, x1 = 0.61	5.11 ± 0.008
338.13 K, 347 kPa, x1 = 0.61	11.583 ± 0.014
338.13 K, 545 kPa, x1 = 0.61	18.632 ± 0.021
338.14 K, 742 kPa, x1 = 0.61	26.034 ± 0.028
338.14 K, 949 kPa, x1 = 0.61	34.303 ± 0.037
338.15 K, 1176 kPa, x1 = 0.61	43.906 ± 0.047
338.15 K, 1363 kPa, x1 = 0.61	52.402 ± 0.056
338.27 K, 391 kPa, x1 = 0.366	10.828 ± 0.013
338.27 K, 1611 kPa, x1 = 0.366	51.607 ± 0.056
338.28 K, 203 kPa, x1 = 0.366	5.523 ± 0.008
338.28 K, 605 kPa, x1 = 0.366	17.163 ± 0.019
338.28 K, 888 kPa, x1 = 0.366	25.992 ± 0.028
338.28 K, 1124 kPa, x1 = 0.366	33.805 ± 0.037
338.28 K, 1339 kPa, x1 = 0.366	41.354 ± 0.045
346.7 K, 514 kPa, x1 = 0.202	11.999 ± 0.014
346.7 K, 754 kPa, x1 = 0.202	17.999 ± 0.02
346.7 K, 1075 kPa, x1 = 0.202	26.432 ± 0.029
346.71 K, 102 kPa, x1 = 0.202	2.301 ± 0.005
346.71 K, 314 kPa, x1 = 0.202	7.219 ± 0.009
346.71 K, 1395 kPa, x1 = 0.202	35.395 ± 0.038
346.71 K, 1836 kPa, x1 = 0.202	48.831 ± 0.052
346.71 K, 2339 kPa, x1 = 0.202	66.017 ± 0.071
346.72 K, 2053 kPa, x1 = 0.202	55.971 ± 0.06
347.61 K, 2249 kPa, x1 = 0.062	52.666 ± 0.057
347.62 K, 600 kPa, x1 = 0.062	12.06 ± 0.014
347.62 K, 1099 kPa, x1 = 0.062	23.044 ± 0.025
347.62 K, 1445 kPa, x1 = 0.062	31.254 ± 0.034
347.62 K, 2663 kPa, x1 = 0.062	65.472 ± 0.07
347.8 K, 256 kPa, x1 = 0.61	8.159 ± 0.01
347.81 K, 464 kPa, x1 = 0.61	15.105 ± 0.017
347.81 K, 667 kPa, x1 = 0.61	22.236 ± 0.024
347.81 K, 880 kPa, x1 = 0.61	30.083 ± 0.033
347.81 K, 1108 kPa, x1 = 0.61	38.968 ± 0.042
347.81 K, 1320 kPa, x1 = 0.61	47.76 ± 0.051
347.81 K, 1481 kPa, x1 = 0.61	54.813 ± 0.059
347.81 K, 1715 kPa, x1 = 0.61	65.61 ± 0.07
347.93 K, 143 kPa, x1 = 0.366	3.726 ± 0.006
347.93 K, 390 kPa, x1 = 0.366	10.422 ± 0.012
347.93 K, 675 kPa, x1 = 0.366	18.538 ± 0.02
347.93 K, 897 kPa, x1 = 0.366	25.186 ± 0.027
347.93 K, 1198 kPa, x1 = 0.366	34.699 ± 0.037
347.93 K, 1496 kPa, x1 = 0.366	44.776 ± 0.048
347.93 K, 1753 kPa, x1 = 0.366	54.093 ± 0.058
347.94 K, 2000 kPa, x1 = 0.366	63.729 ± 0.068
